A word on the melting point: it is the temperature of the solid-liquid transition. `COC(=O)C1=C(C)N(C)C(C)C(C(=O)OC)=C1c1ccc(C(F)(F)F)cc1` (stereo not drawn) had a melting point of 94 to 95 °C.

With `N=C(NNC=O)c1ccc(-c2ccc(Cl)cc2)o1`, the melting point was in the range of 155 to 157 °C.

In turn, `O=C(Nc1ccc(Oc2ccccc2)cc1)Nc1ccc(C(F)(F)F)cc1` had a melting point of 211 to 213 °C.

`CC(C)(C)NC(=O)c1ccc(Br)cc1` showed a melting point of 126 to 128 °C.

`O=c1ccn(CCO)c(C(O)c2ccc(F)cc2)c1O` (stereo not drawn) registered a melting point of 187 to 188 °C.

On to `Nc1cc(-c2nc(-c3ccco3)no2)ccc1Cl`, for which the melting point lay within 203 to 204 °C.

Consider `CC(=O)C1=CCC2C3CCC4CC5OC5CC4(C)C3C(=O)CC12C` (stereo not drawn), for which the melting point fell in the range of 154 to 156 °C.

As to `CC(C)(Oc1ccc(CCC(=O)c2ccc(-c3ccc(Br)cc3)s2)c(Cl)c1Cl)C(=O)O`, the melting point lay within 155 to 157 °C.

On to `N#C[C@H](O)c1cccc(Oc2ccccc2)n1`, for which the melting point was determined as 95 °C.

For `CCOP(=O)(OCC)C(O[Si](C)(C)C)c1ccc(OC)c(C)c1` (stereo not drawn), the melting point came out at 37 °C.

Take `CC(=O)c1cc2cc(OCCNC[C@H](O)COc3ccccc3)ccc2o1`: the melting point is 122 to 123 °C.

`COc1cc(CCN2CCCCC2)cc(OC)c1-c1ccc(C[C@H](NC(=O)c2c(Cl)cccc2Cl)C(=O)O)cc1` gave a melting point of 195 °C.

In the case of `CCc1cc2c(s1)-c1ccccc1C(CC)N2S(=O)(=O)c1ccc(O)cc1` (stereo not drawn), the melting point was 119 to 122 °C.

In turn, `CC(=O)c1ccc(OCCCOc2cc(NC(=O)C(=O)O)c(C)cc2Br)c(CCC(F)(F)F)c1O` yielded a melting point of 133 to 135 °C.

Molecule `Cc1c(C(=O)N[C@H](C)[C@](O)(Cn2cncn2)c2ccc(F)cc2F)cnn1-c1ccc(OC(F)(F)F)cc1` displayed a melting point of 134 to 135 °C.

With `COc1nc(OC)c(C=O)c(N(C)C)n1`, the melting point worked out at 150 °C.

For the molecule `CC(=O)NC1(c2ccc(CCl)cc2)CC1`, the melting point was 124 to 127 °C.

`COc1cc(Br)ccc1C(C)CC(=O)C(=O)Nc1ccc2c(c1)COC2=O` (stereo not drawn) gave a melting point of 136 to 140 °C.

For `COc1cc(-c2nc(NC(=O)c3cc4ccccc4n3CCCCCC(=O)O)sc2CCC2CCCCC2)c(OC)cc1Cl`, the melting point was determined as 121 °C.

On to `O=C1N=c2ccc(OCCN3CC=C(Cc4ccccc4)CC3)cc2=N1`, for which the melting point was in the range of 202 to 203 °C.

As to `CCCC#CCn1ncc(-c2ccc(S(C)(=O)=O)cc2)c(-c2ccc(F)cc2)c1=O`, the melting point was 79 to 80 °C.

Regarding `COCCc1nc2c(N)nc3cc(-c4ccccc4)ccc3c2n1CCCN1CCCC1=O`, the melting point lay in the range of 187 to 191 °C.

For the molecule `CCOC(=O)c1cc(C#N)c(Cl)cc1OC`, the melting point lay within 102 to 103 °C.

`O=C1CN2Cc3c(O)cccc3N=C2N1` had a melting point of over 280 °C.

For the molecule `CC(C)(C)NC(=O)Oc1ccc(-c2nn(C3CCCC3)c3c(F)cccc23)cc1`, the melting point was determined as 157 °C.

For `N#Cc1cc(Cl)ccc1Oc1cccc(O)c1`, the melting point was in the range of 118 to 120 °C.

In turn, `Cc1cccc(-c2ccccc2)c1NC(=N)N(C)C` gave a melting point of 144 to 145 °C.

As to `COc1cc(OC)c2c(=O)[nH]c(-c3cc(C)c(OCCN4CCN(C)CC4)c(C)c3)cc2c1`, the melting point was in the range of 195 to 198 °C.

For the molecule `N#Cc1cc(Br)ccc1CBr`, the melting point came out at 81 °C.

In the case of `COC(=O)c1c(C(=O)OC)c(-c2ccc(Cl)cc2)n2c1Cc1c(n(C)c3ccccc13)C2`, the melting point lay in the range of 264 to 265 °C.

As for `CCCCOC(=O)n1ccc(NC(=O)Nc2cccc3c2C2CCCCN2C3=O)n1` (stereo not drawn), the melting point was determined as 136 °C.

`CN(C)Cc1cccc(OCCCNc2nc(N=Cc3cccnc3)nn2C)c1` returned a melting point of 92 to 93 °C.

For `CC1(N2Cc3cc(CNC(=O)c4ccc(OC(F)(F)F)cc4)ccc3C2=O)CCC(=O)NC1=O` (stereo not drawn), the melting point was in the range of 224 to 226 °C.

In turn, `O=C1CCC(c2ccc(C(F)(F)F)cc2)=NN1` displayed a melting point of 177 to 178 °C.

`N=c1[nH]c2ccc(Cl)cc2c2nc(-c3ccc(Br)o3)nn12`: the melting point lay in the range of 282 to 283 °C.

As for `O=C(O)c1ccc(OCCCON=Cc2ccc(-c3ccccc3)cc2)cc1NC(=O)c1ccccc1C(F)(F)F`, the melting point was 170 to 172 °C.

`CC(C)NCCn1c(-c2ccc(O)cc2)cc2c1CCCC2` displayed a melting point of 149 to 150 °C.

On to `Cc1nsc(Br)c1S(N)(=O)=O`, for which the melting point lay in the range of 148 to 150 °C.

As for `CCc1nc2c(C)cc(C)nc2n1Cc1ccc(C(c2ccccc2)C(CC)C(=O)O)cc1` (stereo not drawn), the melting point is 227 to 229 °C.

Turning to `CCn1cc(C(=O)O)c(=O)c2cc(F)c(N3CCN(S(=O)(=O)c4ccc(F)cc4)CC3)c(F)c21`, the melting point is 243 to 244 °C.

`Cc1ccc(F)c(C(C)Oc2ccc3nc(-c4ccccc4OC(N)=O)sc3c2)c1Cl` (stereo not drawn) registered a melting point of 205 °C.

Molecule `CC12CCC3c4ccc(OCc5ccccc5)cc4CCC3C1CCC2OCc1ccccc1` (stereo not drawn) gave a melting point of 74 to 78 °C.

Molecule `CN1CCC(Oc2ccccc2C(N)=O)C1` (stereo not drawn) registered a melting point of 116 to 118 °C.

Consider `CC(C)c1cccc(C(C)C)c1NC(=O)CN1C(=O)N(c2ccc(C#N)cc2)C2(CCCCC2)C1=O`, for which the melting point fell in the range of 280 to 282 °C.

`CC1(C)CC(=O)C(c2ccc(N)cc2Cl)C(=O)C1` registered a melting point of 218 to 219 °C.

In the case of `CCOC(=O)c1ccccc1OC`, the melting point lay in the range of 75 to 76 °C.

`O=c1c2ccccc2cc(Cl)c2ccccc12` displayed a melting point of 118 to 121 °C.

Consider `c1c(N2CCC3(CC2)OCCO3)nc(N2CCNCC2)nc1N1CCC2(CC1)OCCO2`, for which the melting point lay in the range of 122 to 126 °C.

For `C=CCNc1cc(F)ccc1C(=O)O`, the melting point fell in the range of 136 to 139 °C.

`CN(C)S(=O)(=O)c1c(S(N)(=O)=O)c(C(C)(C)C)cn1C` had a melting point of 98 to 101 °C.

For `COc1cccc(-c2cn(N)c(N)n2)c1`, the melting point lay within 181 to 182 °C.

Take `COC(COC(=O)C1=C(C)NC2=C(C(=O)CNC2)C1c1cccc(Cl)c1C)c1ccccc1` (stereo not drawn): the melting point was 160 to 163 °C.

`CCOC(=O)C1Cc2c([nH]c3ccc(C)cc23)C(c2ccccc2)N1` (stereo not drawn) yielded a melting point of 128 to 130 °C.

With `COC(=O)CCC(C)C1CCC2C3CCC4CCCCC4(C)C3CCC12C` (stereo not drawn), the melting point came out at 87 °C.

The molecule `Cn1cc([C@H]2CC[C@@H](N3CCN(c4cc(C=O)cc5cccnc45)CC3)CC2)c2cc(C#N)ccc21` came in with a melting point of 172 to 174 °C.

`COC(=O)CC1=C(C)C(O)c2ccc(C#N)cc21` (stereo not drawn) displayed a melting point of 70 to 75 °C.

`CC(C)(O)C(=O)Nc1nc(-c2ccco2)c(C(=O)c2ccccc2)s1` came in with a melting point of 153 to 154 °C.

As to `O=C(O)CCCCCOc1nc(-c2ccccc2)c2ccccc2n1`, the melting point lay within 112 to 114 °C.

`CN=C1c2ccccc2CCc2ccc(Cl)cc21` yielded a melting point of 84 to 114 °C.

As to `CCN(CC)C(=O)N(C)C(=O)Nc1ccccc1`, the melting point lay in the range of 88 to 89.5 °C.

`Fc1ccc(CN(C(=S)Nc2ccccc2)C2CCCC2)cc1`: the melting point came out at 135 °C.

On to `Clc1ccc2[nH]c3c(Cl)nc4ccccc4c3c2c1`, for which the melting point worked out at 250 °C.

Consider `CCn1cc(-c2ccc([C@H](C)N3CC[C@](CC(C)(C)O)(c4ccc(F)cc4)OC3=O)cc2)ccc1=O`, for which the melting point lay in the range of 172 to 174 °C.

With `COc1ccc2c(c1)CCC1C2CCC2(CC(C)C)C(O)CCC12` (stereo not drawn), the melting point was 103 to 104 °C.

As for `O=C1Nc2cccc(F)c2C(=O)N2CC[C@@H]12`, the melting point lay within 232 to 234 °C.

`CCOC(=O)C(NC(C)=O)c1csc(NC(C)=O)n1` (stereo not drawn) had a melting point of 149 to 150 °C.

Consider `COc1cccc(NC(=O)NC2N=C(C(C)C)c3ccccc3N(CC(=O)N3CC4CCC(CC4)C3)C2=O)c1` (stereo not drawn), for which the melting point was 139 to 142 °C.

In turn, `C=C(C)C(=O)Nc1ccc2ccc(Cl)nc2n1` had a melting point of 182 °C.

`O=c1oc2cc(O)ccc2c(O)c1C1=CCOc2oc3ccccc3c(=O)c21` had a melting point of over 300 °C.

Take `Cc1cn(C2CCN(c3c(F)cc4c(=O)c(C(=O)O)cn(C5CC5)c4c3F)C2)nn1` (stereo not drawn): the melting point is 219 to 220 °C.

As for `CSc1cc2n(c(=O)n1)C(C)N=C2` (stereo not drawn), the melting point lay in the range of 221 to 222 °C.

In turn, `COc1cc(-c2ccc(C#N)cc2)c2nc(-c3ccc(OC)c(F)c3)cc(O)c2c1` showed a melting point of 248 to 250 °C.

In turn, `Cc1cnc2n1-c1cc(Cl)c(Cl)cc1N=C(c1ccc(-n3c(C)nc4cnccc43)cc1)C2` returned a melting point of 243 to 246 °C.

On to `CCOC(=O)c1cc(NCc2ccccc2)c(OCC(F)(F)F)c(S(N)(=O)=O)c1`, for which the melting point was 163 to 165 °C.

Regarding `CC1(C)CN(c2ncc(C(=O)N(c3cccc(C(F)(F)F)c3)C3CCCC3)c(N)n2)C(=O)N1`, the melting point lay in the range of 135 to 139 °C.

Take `CC(C)CC(=O)Nc1ccc2oc3c(c2c1)CCCCC3`: the melting point fell in the range of 162 to 163 °C.

In the case of `CCCC1=NN(c2cccc(S(=O)(=O)O)c2)C(=O)C1=CNc1ccccc1CC`, the melting point worked out at 259 °C.

In turn, `CC(C)n1cc(-c2c(-c3ccccc3F)nn3ccncc23)ccc1=O` registered a melting point of 150 to 151 °C.

Molecule `CCCCc1ncc(/C=C(\Cc2cccs2)c2nnn[nH]2)n1Cc1cccc(Cl)c1Cl` showed a melting point of 204 to 205 °C.

For `CC(C)c1cc(O)cc(C(C)C)c1NC(=O)CN1CCN(CCSc2nc3ccccc3o2)CC1`, the melting point fell in the range of 162 to 164 °C.

Consider `COc1ccc(C(=O)Nc2ccccc2)cc1NCc1cccc(C)c1`, for which the melting point was in the range of 184 to 185 °C.

Consider `Clc1cc(-c2ccccc2)nc(Cl)n1`, for which the melting point fell in the range of 80 to 85 °C.

With `CCc1cnn(CC(=O)O)c1OCCn1cc(C(=O)NCc2ccc(C(F)(F)F)cc2)c(OC(C)C)n1`, the melting point was in the range of 183 to 184 °C.

The molecule `COC(=O)c1cc(NC2CCCCC2)c2cc(Cc3ccc(F)cc3)cnc2c1O` showed a melting point of 75.5 to 77.5 °C.

`CCc1cc2c(s1)S(=O)(=O)Cc1cc(=O)n(-c3ccc(Cl)cc3)nc1-2` yielded a melting point of 189 to 191 °C.

With `CN(C1=NC(=O)CS1)c1ccc(C(O)(C(F)(F)F)C(F)(F)F)cc1`, the melting point was 240 to 242 °C.

With `O=c1[nH]c(=O)n(CCCCBr)c2nccnc12`, the melting point was in the range of 154 to 155 °C.

The molecule `CCn1c(=O)c2c(nc(/C=C/c3ccc(OC)c(C)c3C)n2C)n(CC)c1=O` registered a melting point of 208 °C.

The values are drawn from a melting point compilation (Tetko et al.; mined from patent text by program, amines drawn as free bases though some values may be those of a salt).
